# Where “and” joins values, the source holds several entries; their conditions need not be identical. Identical values can stand only once.
# Tested on: T1, UGT enzymes of human liver microsomes
# T1 construct: percentage of control metabolism, 7-HFC glucuronidation; percentage of control metabolism, 7-HFC glucuronidation
# Experiment: Inhibition of 7-HFC glucuronidation in human liver microsomes
# Assay type: biochemical
# Conditions: 7-HFC 50 μM, human liver microsomes 100 μg/ml, 15 min
SMILES,"% of control metabolism (SD, n = 3), 7-HFC glucuronidation (inhibitor 200 μM)","% of control metabolism (SD, n = 3), 7-HFC glucuronidation (inhibitor 500 μM)"
CCCOC(=O)c1cc(O)c(O)c(O)c1 [Propyl gallate],71 (1) %,"63 (0), % and 59 (1) %"
"CC(CCc1ccccc1)NCC(O)c1ccc(O)c(C(N)=O)c1 (stereo not drawn) [Labetalol, labetalol]",–,95 (2) %

# — US20030215462A1, “Use of UGT inhibitors to increase bioavailability” (priority 2001, published 2003)
